# Experimental data: patent US12459876B2, “One-step kit-based synthesis of 2-deoxy-2-[18F]fluoro-D-sorbitol” (The Johns Hopkins University, priority 2020, dated 2025)
# Like-named read-outs stand apart in the source and are kept apart here.
# Assays:
# [1] = in vivo; cited from earlier work
# [2] = human, in vivo; cited from earlier work
# K. pneumoniae = conditions: intravenous; PET 120 minutes post-tracer injection; n=6; Mann Whitney U test
# [3] = rat, in vivo; cited from earlier work
# E. coli = conditions: cited from earlier work
compound,measurement,setting,value
"OC[C@@H](O)[C@@H](O)[C@H](O)[C@@H]([18F])CO [^18F-FDS, 2-deoxy-2-[^18F]fluoro-D-sorbitol]",Route of clearance,[1],predominantly cleared through the kidneys
same,Accumulation in the renal cortex,[2],rapid ^18F-FDS accumulation in the renal cortex with gradual transition to the parenchyma
same,"SUVmean, areas of pneumonia compared to unaffected lung",K. pneumoniae,significantly higher
same,Accumulation in the renal cortex,[3],rapid accumulation
same,Renal uptake,[3],significantly delayed
same,PET signal outside the site of infection (biodistribution),"Enterobacterales; patient with Enterobacter aerogenes cellulitis, MIP","Signal also is noted in the heart (blood pool), liver, kidneys, and the urinary bladder"
same,Monitoring of antimicrobial response by repeat imaging,"Enterobacterales; patients, repeat imaging after antibiotic treatments",able to monitor antimicrobial response
same,Detection of therapeutic failures,"E. coli; MDR, extended-spectrum β-lactamase producing E. coli strains",detect therapeutic failures
same,Distinction of infection from sterile inflammation,E. coli; mouse models,able to distinguish infection from sterile inflammation
